pEC50, pIC50: −log10 of the molar value.
Legend:
[1] = system: NQO1 mRNA in BEAS-2B cells; assay: Beas2B NQO1 mRNA cell based assay; set-up: species or system human; conditions: Homo sapiens, BEAS-2B, 24 h, 24 h compound treatment, increase in NQO1 mRNA vs vehicle (0.1% DMSO), read-out: EC50
Procedure, shortened: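 Relative NQO1 transcript level derived by ΔΔCT with human β-actin as internal control, using direct-lysate one-step RT-qPCR. Cells were BEAS-2B, plated overnight then treated with compound for 24 h.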

[2] = biological target: human KEAP1 (N-term, residues 321-609) (Homo sapiens, UniProt Q14145); assay: biochemical;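 further: fluorescence polarization competition assay of Kelch domain binding to NRF2, 12-point 1:3 dilution series from 10 µM, read after 1 h at room temperature, floor 10 nM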
Chain of human KEAP1 (N-term, residues 321-609) (Q14145 321-609): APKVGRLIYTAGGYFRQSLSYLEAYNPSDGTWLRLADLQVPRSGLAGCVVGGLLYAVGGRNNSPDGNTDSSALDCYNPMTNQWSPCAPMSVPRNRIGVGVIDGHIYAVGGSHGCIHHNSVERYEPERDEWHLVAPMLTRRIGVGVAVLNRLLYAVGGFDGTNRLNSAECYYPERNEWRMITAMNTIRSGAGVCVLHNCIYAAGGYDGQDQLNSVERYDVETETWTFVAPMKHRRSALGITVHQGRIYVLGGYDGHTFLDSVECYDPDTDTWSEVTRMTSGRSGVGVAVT

| pIC50 [2] | SMILES | pEC50 [1] |
| --- | --- | --- |
| 8.25 | O=C(O)[C@H]1CCCC[C@H]1C(=O)N1CCc2cccc(O[C@H]3CCN(C(=O)c4cncs4)C3)c2[C@H]1CN1C(=O)c2ccccc2C1=O [Example 6, (1S,2R)-2-((S)-1-((1,3-dioxoisoindolin-2-yl)methyl)-8-(((S)-1-(thiazole-5-carbonyl)pyrrolidin-3-yl)oxy)-1,2,3,4-tetrahydroisoquinoline-2-carbonyl)cyclohexane-1-carboxylic acid] | 7.11 |
| 7.82 | O=C(O)[C@H]1CCCC[C@H]1C(=O)N1CCc2c(Cl)ccc(OCc3cn4cccnc4n3)c2[C@H]1CN1CCCC1=O [Example 92, (1S,2R)-2-((S)-5-Chloro-8-(imidazo[1,2-a]pyrimidin-2-ylmethoxy)-1-((2-oxopyrrolidin-1-yl)methyl)-1,2,3,4-tetrahydroisoquinoline-2-carbonyl) cyclohexane-1-carboxylic acid] | 6.74 |
| 8.28 | Cn1nnc(COc2ccc(Br)c3c2[C@@H](CN2CCCC2=O)N(C(=O)[C@@H]2CCCC[C@]2(C)C(=O)O)CC3)c1C(F)(F)F [Example 191, (1S,2R)-2-((S)-5-bromo-8-((1-methyl-5-(trifluoromethyl)-1H-1,2,3-triazol-4-yl)methoxy)-1-((2-oxopyrrolidin-1-yl)methyl)-1,2,3,4-tetrahydroisoquinoline-2-carbonyl)-1-methylcyclohexane-1-carboxylic acid] | 8.68 |
| 8.22 | C[C@]1(C(=O)O)CCCC[C@H]1C(=O)N1CCc2c(Cl)ccc(OCc3noc4c(F)cccc34)c2[C@H]1CN1CCCC1=O [Example 164, (1S,2R)-2-((S)-5-chloro-8-((7-fluorobenzo[d]isoxazol-3-yl)methoxy)-1-((2-oxopyrrolidin-1-yl)methyl)-1,2,3,4-tetrahydroisoquinoline-2-carbonyl)-1-methylcyclohexane-1-carboxylic acid] | 8.59 |
| 8.15 | Cn1nnc(COc2ccc(Cl)c3c2[C@@H](CN2CC4(CC4)CC2=O)N(C(=O)[C@@H]2C[C@@H](O)CC[C@]2(C)C(=O)O)CC3)c1C(F)F [Example 220, (1S,2R,4S)-2-((S)-5-chloro-8-((5-(difluoromethyl)-1-methyl-1H-1,2,3-triazol-4-yl)methoxy)-1-((6-oxo-5-azaspiro[2.4]heptan-5-yl)methyl)-1,2,3,4-tetrahydroisoquinoline-2-carbonyl)-4-hydroxy-1-methylcyclohexane-1-carboxylic acid] | 7.82 |
| 8.10 | CC(C)n1cc(COc2ccc(F)c3c2[C@@H](CN2Cc4ccccc4C2=O)N(C(=O)[C@@H]2CCCC[C@@H]2C(=O)O)CC3)nn1 [Example 58, (1S,2R)-2-((S)-5-fluoro-8-((1-isopropyl-1H-1,2,3-triazol-4-yl)methoxy)-1-((1-oxoisoindolin-2-yl)methyl)-1,2,3,4-tetrahydroisoquinoline-2-carbonyl)cyclohexane-1-carboxylic acid] | 7.17 |
| 7.80 | Cn1ncnc1COc1ccc(Br)c2c1[C@@H](CN1Cc3ccccc3C1=O)N(C(=O)[C@@H]1CCCC[C@@H]1C(=O)O)CC2 [Example 29, (1S,2R)-2-((S)-5-Bromo-8-((1-methyl-1H-1,2,4-triazol-5-yl)methoxy)-1-((1-oxoisoindolin-2-yl)methyl)-1,2,3,4-tetrahydroisoquinoline-2-carbonyl)cyclohexane-1-carboxylic acid] | 7.00 |
| 8.19 | CN(C)CCn1cc(COc2ccc(Cl)c3c2[C@@H](CN2CC4(CC4)CC2=O)N(C(=O)[C@@H]2CCCC[C@]2(C)C(=O)O)CC3)nn1 [Example 173, (1S,2R)-2-((S)-5-chloro-8-((1-(2-(dimethylamino)ethyl)-1H-1,2,3-triazol-4-yl)methoxy)-1-((6-oxo-5-azaspiro[2.4]heptan-5-yl)methyl)-1,2,3,4-tetrahydroisoquinoline-2-carbonyl)-1-methylcyclohexane-1-carboxylic acid] | 7.46 |
| 7.85 | Cc1cnc(COc2ccc(Br)c3c2[C@@H](CN2Cc4ccccc4C2=O)N(C(=O)[C@@H]2CCCC[C@@H]2C(=O)O)CC3)s1 [Example 28, (1S,2R)-2-((S)-5-Bromo-8-((5-methylthiazol-2-yl)methoxy)-1-((1-oxoisoindolin-2-yl)methyl)-1,2,3,4-tetrahydroisoquinoline-2-carbonyl)cyclohexane-1-carboxylic acid] | 7.03 |
| 8.29 | Cn1cnc2cc(COc3ccc(Br)c4c3[C@@H](CN3Cc5ccccc5C3=O)N(C(=O)[C@@H]3CCCC[C@@H]3C(=O)O)CC4)ccc21 [Example 33, (1S,2R)-2-((S)-5-bromo-8-((1-methyl-1H-benzo[d]imidazol-5-yl)methoxy)-1-((1-oxoisoindolin-2-yl)methyl)-1,2,3,4-tetrahydroisoquinoline-2-carbonyl)cyclohexane-1-carboxylic acid] | 7.66 |
| 8.23 | Cn1nnc(COc2ccc(Cl)c3c2[C@@H](CN2CCCC2=O)N(C(=O)[C@@H]2CCCC[C@]2(C)C(=O)O)CC3)c1C(F)(F)F [Example 108, (1S,2R)-2-((S)-5-Chloro-8-((1-methyl-5-(trifluoromethyl)-1H-1,2,3-triazol-4-yl)methoxy)-1-((2-oxopyrrolidin-1-yl)methyl)-1,2,3,4-tetrahydroisoquinoline-2-carbonyl)-1-methylcyclohexane-1-carboxylic acid] | 8.82 |
| 8.08 | CC[C@]1(C(=O)O)CCC[C@H]1C(=O)N1CCc2c(Cl)ccc(OCc3nnn(C)c3C(F)F)c2[C@H]1CN1CCCC1=O [Example 118, (1S,2R)-2-((S)-5-chloro-8-((5-(difluoromethyl)-1-methyl-1H-1,2,3-triazol-4-yl)methoxy)-1-((2-oxopyrrolidin-1-yl)methyl)-1,2,3,4-tetrahydroisoquinoline-2-carbonyl)-1-ethylcyclopentane-1-carboxylic acid] | 7.23 |
| 8.22 | C[C@]1(C(=O)O)CCCC[C@H]1C(=O)N1CCc2c(Cl)ccc(OCc3nnn(C4CC4)c3C(F)F)c2[C@H]1CN1CC2(CC2)CC1=O [Example 172, (1S,2R)-2-((S)-5-chloro-8-((1-cyclopropyl-5-(difluoromethyl)-1H-1,2,3-triazol-4-yl)methoxy)-1-((6-oxo-5-azaspiro [2.4]heptan-5-yl)methyl)-1,2,3,4-tetrahydroisoquinoline-2-carbonyl)-1-methylcyclohexane-1-carboxylic acid] | 8.96 |
| 7.43 | CC(Oc1ccc(Br)c2c1[C@@H](CN1Cc3ccccc3C1=O)N(C(=O)[C@@H]1CCCC[C@@H]1C(=O)O)CC2)c1cn(C(C)C)nn1 (single isomer, unassigned) [Example 46] | 7.22 |
| 8.01 | C[C@@H]1CC(=O)N(C[C@@H]2c3c(OCc4nnn(C)c4C(F)F)ccc(Cl)c3CCN2C(=O)[C@@H]2CCC[C@]2(C)C(=O)O)C1 [Example 109, (1S,2R)-2-((S)-5-Chloro-8-((5-(difluoromethyl)-1-methyl-1H-1,2,3-triazol-4-yl)methoxy)-1-(((R)-4-methyl-2-oxopyrrolidin-1-yl)methyl)-1,2,3,4-tetrahydroisoquinoline-2-carbonyl)-1-methylcyclopentane-1-carboxylic acid] | 8.13 |
| 8.22 | O=C(O)[C@H]1CCCC[C@H]1C(=O)N1CCc2c(Br)ccc(OCc3ccn4ccnc4c3)c2[C@H]1CN1Cc2ccccc2C1=O [Example 32] | 7.12 |

Source: patent publication US12098148B2, “Therapeutic compounds” (C4X Discovery Limited, priority 2018, dated 2024)
